This is an account of results in US8871681B2, “Herbicidal compositions comprising 4-amino-3-chloro-5-fluoro-6-(4-chloro-2-fluoro-3-methoxyphenyl) pyridine-2-carboxylic acid or a derivative thereof and certain sulfonylureas” (Dow AgroSciences LLC, priority 2012, dated 2014).

The subject of assay [1] is SCPMA (Bolboschoenus maritimus or Schoenoplectus maritimus, sea clubrush). Nature of the assay: In-water applied weed control, transplanted paddy rice, greenhouse (Example II). Type of assay: in vivo, Bolboschoenus maritimus (L.) Palla. The gist of the method:
(§1)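 Transplanted rice and weeds at first to fourth true leaf stage in flooded mud pots (2.5–3 cm water), greenhouse ~29/26 °C day/night. Herbicides alone or mixed, in 1.25% crop oil concentrate (acetone for technical material), injected into the flood; visual 0–100% injury after ~3 weeks, expected mixture effects by Colby.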

For assay [2], the system named is LEFCH (Leptochloa chinensis, Chinese sprangletop). Described as above. It is filed as in vivo, Leptochloa chinensis (L.) Nees. Put shortly:
as §1

`COC(=O)c1ccccc1CS(=O)(=O)NC(=O)Nc1nc(OC)cc(OC)n1` [Bensulfuron-methyl, methyl 2-[[[[[(4,6-dimethoxy-2-pyrimidinyl)amino]carbonyl]amino]sulfonyl]methyl]benzoate, reference compound]: the “Visual Weed Control (%) - 21 DAA SCPMA Obs” value in assay [1] (Table 32, 17.5 gai/ha alone) turned out to be 45%; in assay [1] (Table 32, 35 gai/ha alone), 90%. Also, the “Visual Weed Control (%) - 19 DAA LEFCH Obs” value in assay [2] (Table 31, 70 gai/ha alone) worked out at 23%.
With `COc1c(Cl)ccc(-c2nc(C(=O)O)c(Cl)c(N)c2F)c1F` [Compound A Acid, 4-amino-3-chloro-5-fluoro-6-(4-chloro-2-fluoro-3-methoxy-phenyl)pyridine-2-carboxylic acid], the “Visual Weed Control (%) - 20 DAA SCPMA Obs” value in assay [1] (Table 28, 8.75 gae/ha alone) was 40%; in assay [1] (Table 28, 17.5 gae/ha alone), 20%; in assay [1] (Table 28, 35 gae/ha alone), 20%; in assay [1] (Table 28, second set, 70 gae/ha alone), 0%; in assay [1] (Table 38, 35 gae/ha alone), 0%; in assay [1] (Table 38, 70 gae/ha alone), 0%. The “Visual Weed Control (%) - 20 DAA SCPMA Obs” value was determined as 0% in assay [1] (Table 45, 42.4 gae/ha alone) and 0% in assay [1] (Table 45, 84.8 gae/ha alone). The “Visual Weed Control (%) - 19 DAA LEFCH Obs” value in assay [2] (Table 31, 42 gae/ha alone) was determined as 10%. For the same compound, the “Visual Weed Control (%) - 22 DAA LEFCH Obs” value stood at 20% in assay [2] (Table 34, 10.6 gae/ha alone); 40% in assay [2] (Table 34, 21.2 gae/ha alone); 60% in assay [2] (Table 34, 42.4 gae/ha alone). Moreover, the “Visual Weed Control (%) - 21 DAA LEFCH Obs” value in assay [2] (Table 36, 17.5 gae/ha alone) came out at 20%; in assay [2] (Table 47, 17.5 gae/ha alone) it was 20%. Also, the “Visual Weed Control (%) - 20 DAA LEFCH Obs” value in assay [2] (Table 43, 10.6 gae/ha alone) turned out to be 30%; in assay [2] (Table 43, 21.2 gae/ha alone) it was 20%; in assay [2] (Table 43, 42.4 gae/ha alone) it was 75%; in assay [2] (Table 49, 10.6 gae/ha alone), 30%; in assay [2] (Table 49, 21.2 gae/ha alone), 20%; in assay [2] (Table 49, 42.4 gae/ha alone) it was 75%.
On to `COc1c(Cl)ccc(-c2nc(C(=O)OCc3ccccc3)c(Cl)c(N)c2F)c1F` [Compound A Benzyl Ester], for which the “Visual Weed Control (%) - 20 DAA SCPMA Obs” value in assay [1] (Table 29, 4.38 gae/ha alone) is reported as 10%; in assay [1] (Table 29, 8.75 gae/ha alone), 0%; in assay [1] (Table 29, 17.5 gae/ha alone), 20%; in assay [1] (Table 29, 35 gae/ha alone), 0%; in assay [1] (Table 29, 70 gae/ha alone), 0%; in assay [1] (Table 39, 35 gae/ha alone) it was 0%. Further, the “Visual Weed Control (%) - 20 DAA SCPMA Obs” value in assay [1] (Table 39, 70 gae/ha alone) came out at 0%; in assay [1] (Table 46, 35 gae/ha alone), 0%; in assay [1] (Table 46, 70 gae/ha alone) it was 0%. The “Visual Weed Control (%) - 21 DAA SCPMA Obs” value in assay [1] (Table 32, 48 gae/ha alone) is given as 0%; in assay [1] (Table 32, 96 gae/ha alone), 0%; in assay [1] (Table 33, 8 gae/ha alone), 0%; in assay [1] (Table 33, 16 gae/ha alone), 0%; in assay [1] (Table 33, 32 gae/ha alone) it was 0%; in assay [1] (Table 48, 8 gae/ha alone), 0%. For the same compound, the “Visual Weed Control (%) - 21 DAA SCPMA Obs” value came out at 0% in assay [1] (Table 48, 16 gae/ha alone) and 0% in assay [1] (Table 48, 32 gae/ha alone). The “Visual Weed Control (%) - 22 DAA LEFCH Obs” value in assay [2] (Table 35, 4.38 gae/ha alone) is 20%. Besides, the “Visual Weed Control (%) - 20 DAA LEFCH Obs” value in assay [2] (Table 50, 4.38 gae/ha alone) was determined as 20%.
As for `COCC(=O)OC(c1ncccc1S(=O)(=O)NC(=O)Nc1nc(OC)cc(OC)n1)C(C)F` (centres unmarked) [Flucetosulfuron, 1-[3-[[[[(4,6-dimethoxy-2-pyrimidinyl)amino]carbonyl]amino]sulfonyl]-2-pyridinyl]-2-fluoropropyl 2-methoxyacetate], the “Visual Weed Control (%) - 21 DAA LEFCH Obs” value is 0% in assay [2] (Table 36, 0.1 gai/ha alone) and 0% in assay [2] (Table 36, 0.2 gai/ha alone).
